Results published in US8420637B2, “Abnormal cannabidiols as agents for lowering intraocular pressure” (Allergan, Inc., priority 2006, dated 2013).

Each compound was assayed on Laser-induced unilaterally ocular hypertensive Cynomolgus monkeys (assay: Intraocular pressure by applanation pneumatonometry in conscious animals). Conditions: topical to one eye, dosed once, IOP measured over the course of 24 hours; female ocular hypertensive Cynomolgus monkeys.
Format: in vivo
Set-up: key: *: one star indicates no potency; ***: three stars indicates a very potent compound
Procedure: Intraocular pressure was measured by applanation pneumatonometry in conscious animals. The test compound was administered topically to one eye while vehicle was given to the fellow eye in a masked fashion. Laser-induced unilaterally ocular hypertensive Cynomolgus monkeys (females) were dosed once and the IOP was measured over the course of 24 hours.
The results are shown in the Table, below wherein the stars indicating the potency of the compound. That is, one star indicates no potency, three stars indicates a very potent compound.
In the case of `CC1CC(=O)CC(=O)N1C1CCCCC1` (stereo not drawn) [Example 20, 1-Cyclohexyl-6-methylpiperidine-2,4-dione], the Efficacy is reported as “***”.
For `C=C(C)C1CCC(C)=CC1c1c(O)cc(O)cc1Cl` (stereo not drawn) [Example 5, 5-Chloro-4-(6-Isopropenyl-3-methylcyclohex-2-enyl)benzene-1,3-diol], the Efficacy was “***”.
For `Oc1cc(O)c(C2CCCCC2)c(Cl)c1` [9 (b), 5-Chloro-4-cyclohexylbenzene-1,3-diol], the Efficacy was “***”.
